Results reported in ChEMBL document CHEMBL1201862, “PubChem BioAssay data set” (2004).
Activity calls are given as the source filed them.

Tests used:
[1] = biological target: T1, Short transient receptor potential channel 4 (Mus musculus, UniProt Q9QUQ5); experiment: potentiation of DAMGO-evoked TRPC4 calcium signal – cell-based, HEK293 TRPC4/mu-opioid, Fluo-4 calcium, EC20 DAMGO, dose response (AID 434941); format: functional
T1 sequence (Q9QUQ5 whole entry): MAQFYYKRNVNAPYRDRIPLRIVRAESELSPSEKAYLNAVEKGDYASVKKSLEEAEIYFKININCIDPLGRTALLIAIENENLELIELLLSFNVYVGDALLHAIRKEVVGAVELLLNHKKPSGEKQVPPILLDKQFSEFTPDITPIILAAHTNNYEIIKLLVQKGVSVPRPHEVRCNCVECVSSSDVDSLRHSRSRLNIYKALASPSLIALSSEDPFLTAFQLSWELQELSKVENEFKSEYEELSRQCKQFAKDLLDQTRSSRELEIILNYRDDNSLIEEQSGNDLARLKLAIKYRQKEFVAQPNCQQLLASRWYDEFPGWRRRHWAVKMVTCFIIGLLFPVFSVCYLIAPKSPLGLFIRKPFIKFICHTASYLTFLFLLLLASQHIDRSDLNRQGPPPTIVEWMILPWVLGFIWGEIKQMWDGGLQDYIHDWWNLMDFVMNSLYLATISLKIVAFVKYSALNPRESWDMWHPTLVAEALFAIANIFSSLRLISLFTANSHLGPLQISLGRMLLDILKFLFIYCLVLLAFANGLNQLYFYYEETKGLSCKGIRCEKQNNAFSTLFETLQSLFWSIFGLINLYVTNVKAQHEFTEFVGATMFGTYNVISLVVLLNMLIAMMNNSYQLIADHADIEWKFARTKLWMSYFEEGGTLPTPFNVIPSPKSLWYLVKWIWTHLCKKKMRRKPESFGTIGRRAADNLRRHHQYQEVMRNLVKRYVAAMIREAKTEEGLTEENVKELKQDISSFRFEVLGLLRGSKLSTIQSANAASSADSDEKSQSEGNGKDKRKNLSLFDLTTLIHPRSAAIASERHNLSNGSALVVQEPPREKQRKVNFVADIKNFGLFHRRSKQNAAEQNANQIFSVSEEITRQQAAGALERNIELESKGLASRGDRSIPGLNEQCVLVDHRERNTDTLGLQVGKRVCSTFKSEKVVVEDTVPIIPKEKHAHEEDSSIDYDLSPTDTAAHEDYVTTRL

[2] = biological target: T2, Hexokinase HKDC1 (Homo sapiens, UniProt Q2TB90); experiment: activation of HKDC1 glucose phosphorylation – biochemical, W721R variant, dose response (AID 504730); format: functional
T2 sequence (Q2TB90 whole entry): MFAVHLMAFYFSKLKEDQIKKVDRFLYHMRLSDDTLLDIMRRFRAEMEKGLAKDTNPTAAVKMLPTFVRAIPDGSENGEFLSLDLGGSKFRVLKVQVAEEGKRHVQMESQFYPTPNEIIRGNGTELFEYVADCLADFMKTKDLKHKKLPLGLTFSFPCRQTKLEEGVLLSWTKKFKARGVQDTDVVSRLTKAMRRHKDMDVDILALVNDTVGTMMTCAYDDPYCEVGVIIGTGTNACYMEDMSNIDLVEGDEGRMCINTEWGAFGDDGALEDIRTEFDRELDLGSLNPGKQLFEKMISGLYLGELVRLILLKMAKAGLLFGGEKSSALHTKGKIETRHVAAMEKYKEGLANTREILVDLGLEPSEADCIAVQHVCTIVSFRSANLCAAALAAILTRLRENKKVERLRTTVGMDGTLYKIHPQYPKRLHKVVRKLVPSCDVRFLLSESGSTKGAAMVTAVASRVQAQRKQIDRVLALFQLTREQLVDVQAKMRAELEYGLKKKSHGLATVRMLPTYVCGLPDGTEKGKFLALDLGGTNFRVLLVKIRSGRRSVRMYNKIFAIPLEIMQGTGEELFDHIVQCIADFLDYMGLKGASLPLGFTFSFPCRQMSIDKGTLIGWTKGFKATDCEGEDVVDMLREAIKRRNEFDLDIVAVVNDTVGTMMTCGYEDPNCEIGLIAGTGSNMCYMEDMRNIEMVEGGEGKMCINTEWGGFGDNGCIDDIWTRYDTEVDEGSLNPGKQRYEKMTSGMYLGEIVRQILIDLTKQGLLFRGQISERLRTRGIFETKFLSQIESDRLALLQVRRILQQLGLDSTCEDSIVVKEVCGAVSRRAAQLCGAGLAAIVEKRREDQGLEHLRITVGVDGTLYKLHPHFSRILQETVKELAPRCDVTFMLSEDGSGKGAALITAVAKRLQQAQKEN

[3] = biological target: T3, RNA-binding protein pos-1 (Caenorhabditis elegans, UniProt G5EF15); experiment: disruptors of C. elegans POS-1 RNA interaction – biochemical, fluorescence polarization, dose response (AID 1964);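 also: purified POS-1 fused to maltose binding protein made in E. coli; potency of compounds blocking POS-1 binding to fluorescent RNA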
T3 sequence (G5EF15 whole entry): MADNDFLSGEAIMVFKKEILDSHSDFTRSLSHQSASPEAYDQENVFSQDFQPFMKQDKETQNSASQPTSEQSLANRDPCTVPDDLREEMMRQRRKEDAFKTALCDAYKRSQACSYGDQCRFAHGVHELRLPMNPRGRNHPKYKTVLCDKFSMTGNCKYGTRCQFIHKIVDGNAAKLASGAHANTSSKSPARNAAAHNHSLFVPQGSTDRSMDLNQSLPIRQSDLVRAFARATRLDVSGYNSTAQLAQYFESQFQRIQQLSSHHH

[4] = biological target: T4, Zinc finger protein mex-5 (Caenorhabditis elegans, UniProt Q9XUB2); experiment: potency of MEX-5 RNA-binding blockers – biochemical, C. elegans, fluorescence polarization, dose response (AID 1960)
T4 sequence (Q9XUB2 whole entry): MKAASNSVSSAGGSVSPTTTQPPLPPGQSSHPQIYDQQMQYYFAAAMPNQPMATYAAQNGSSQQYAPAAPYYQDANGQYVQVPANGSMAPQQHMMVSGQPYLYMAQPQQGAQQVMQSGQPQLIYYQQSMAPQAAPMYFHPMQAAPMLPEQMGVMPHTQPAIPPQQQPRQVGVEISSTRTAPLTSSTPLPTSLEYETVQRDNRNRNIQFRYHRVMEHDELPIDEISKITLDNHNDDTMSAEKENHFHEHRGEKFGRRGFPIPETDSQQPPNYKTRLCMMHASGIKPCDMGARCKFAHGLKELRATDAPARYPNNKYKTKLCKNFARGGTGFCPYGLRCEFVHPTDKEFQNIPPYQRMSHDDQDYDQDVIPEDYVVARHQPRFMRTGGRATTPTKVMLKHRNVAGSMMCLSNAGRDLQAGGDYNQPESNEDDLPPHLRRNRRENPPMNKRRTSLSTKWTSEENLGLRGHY

[5] = biological target: ORF 73 (Human herpesvirus 8, UniProt O40947); experiment: KSHV LANA DNA-binding disruption – biochemical, fluorescence polarization, cherry-picked samples, dose response (AID 504725); set-up: species or system Human gammaherpesvirus 8;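 also: fluorescence polarization of a labeled DNA duplex reporting LANA DNA binding; potency is for inhibitors that block LANA binding to the DNA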
[6] = biological target: T5, Corticotropin-releasing factor receptor 2/Corticotropin-releasing factor-binding protein (Homo sapiens, UniProt P24387+Q13324); experiment: activators of CRF receptor 2 with binding protein – uHTS hits, confirmation (AID 602473); format: functional; conditions: read-out: EC50_Mean
T5 sequence (Q13324 whole entry): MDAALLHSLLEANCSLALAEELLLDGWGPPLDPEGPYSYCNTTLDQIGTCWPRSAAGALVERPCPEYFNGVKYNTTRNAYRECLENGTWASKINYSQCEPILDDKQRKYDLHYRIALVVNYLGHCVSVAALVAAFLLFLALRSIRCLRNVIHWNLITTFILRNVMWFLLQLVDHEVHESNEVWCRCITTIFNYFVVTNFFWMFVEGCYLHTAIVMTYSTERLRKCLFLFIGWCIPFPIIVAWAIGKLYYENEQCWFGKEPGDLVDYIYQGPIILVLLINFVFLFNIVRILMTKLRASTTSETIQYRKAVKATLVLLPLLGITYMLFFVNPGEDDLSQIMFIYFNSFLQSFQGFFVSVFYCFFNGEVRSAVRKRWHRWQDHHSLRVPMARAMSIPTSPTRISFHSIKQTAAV
T5 sequence (P24387 whole entry): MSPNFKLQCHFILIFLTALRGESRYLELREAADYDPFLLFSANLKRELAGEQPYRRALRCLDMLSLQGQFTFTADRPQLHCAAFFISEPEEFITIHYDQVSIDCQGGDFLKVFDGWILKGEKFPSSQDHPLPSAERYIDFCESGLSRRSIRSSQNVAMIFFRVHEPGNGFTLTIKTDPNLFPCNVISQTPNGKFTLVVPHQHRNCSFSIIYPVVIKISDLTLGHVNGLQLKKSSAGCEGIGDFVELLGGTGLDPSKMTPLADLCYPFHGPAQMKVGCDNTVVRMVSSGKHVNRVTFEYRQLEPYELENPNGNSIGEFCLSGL

[7] = biological target: T6, Aminopeptidase N (Plasmodium falciparum FcB1/Columbia, UniProt O96935); experiment: malaria alanyl aminopeptidase activity blockers – biochemical, fluorogenic H-Leu-NHMec substrate, 1536-well (AID 1445); set-up: species or system Plasmodium falciparum 3D7, 3D7
T6 sequence (O96935 whole entry): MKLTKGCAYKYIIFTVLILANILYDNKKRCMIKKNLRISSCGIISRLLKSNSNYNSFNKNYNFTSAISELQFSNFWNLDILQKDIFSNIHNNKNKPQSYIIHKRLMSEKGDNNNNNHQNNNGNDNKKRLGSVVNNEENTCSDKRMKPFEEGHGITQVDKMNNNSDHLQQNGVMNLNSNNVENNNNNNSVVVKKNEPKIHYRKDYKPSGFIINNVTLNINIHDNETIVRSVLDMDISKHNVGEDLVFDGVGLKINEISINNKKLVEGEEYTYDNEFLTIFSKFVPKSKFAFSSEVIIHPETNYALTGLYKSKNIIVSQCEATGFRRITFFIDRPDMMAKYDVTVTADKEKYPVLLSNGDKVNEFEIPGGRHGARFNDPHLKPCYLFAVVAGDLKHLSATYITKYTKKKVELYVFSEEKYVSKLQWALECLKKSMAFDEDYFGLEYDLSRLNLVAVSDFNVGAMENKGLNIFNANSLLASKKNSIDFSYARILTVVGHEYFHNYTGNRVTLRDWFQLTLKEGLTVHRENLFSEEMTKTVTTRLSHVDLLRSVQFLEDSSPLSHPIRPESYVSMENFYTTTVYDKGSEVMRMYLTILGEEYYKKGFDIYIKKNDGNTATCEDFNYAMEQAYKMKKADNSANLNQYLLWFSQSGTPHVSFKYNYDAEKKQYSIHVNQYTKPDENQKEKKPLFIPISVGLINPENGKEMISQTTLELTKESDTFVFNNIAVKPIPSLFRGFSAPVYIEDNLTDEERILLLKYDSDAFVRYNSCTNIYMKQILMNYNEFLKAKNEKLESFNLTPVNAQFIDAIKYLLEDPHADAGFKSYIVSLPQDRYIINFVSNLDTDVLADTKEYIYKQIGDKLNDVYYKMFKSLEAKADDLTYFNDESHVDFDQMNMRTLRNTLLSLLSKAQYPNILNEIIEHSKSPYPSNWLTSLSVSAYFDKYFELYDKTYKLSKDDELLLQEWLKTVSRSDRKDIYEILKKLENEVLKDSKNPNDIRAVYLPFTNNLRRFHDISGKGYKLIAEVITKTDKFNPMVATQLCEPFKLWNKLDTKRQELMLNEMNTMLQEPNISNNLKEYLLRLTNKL

[8] = biological target: T7, Calpain-2 catalytic subunit (Sus scrofa, UniProt P43367); experiment: m-calpain protease blockers, concentration series – biochemical, fluorogenic peptide substrate, dose response (AID 1420); format: functional
T7 sequence (P43367 whole entry): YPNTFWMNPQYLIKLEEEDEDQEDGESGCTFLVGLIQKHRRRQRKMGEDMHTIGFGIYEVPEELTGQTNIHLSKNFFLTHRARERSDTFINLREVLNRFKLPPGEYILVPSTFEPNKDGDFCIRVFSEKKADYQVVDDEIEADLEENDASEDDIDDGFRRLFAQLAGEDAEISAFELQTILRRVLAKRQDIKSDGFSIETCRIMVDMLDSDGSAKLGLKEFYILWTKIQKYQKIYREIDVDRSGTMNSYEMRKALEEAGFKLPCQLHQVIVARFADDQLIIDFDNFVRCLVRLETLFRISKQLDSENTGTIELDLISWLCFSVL

[9] = biological target: Troponin, cardiac muscle (Homo sapiens, UniProt P19429+P45379+P63316); experiment: Fluorescence-based biochemical high throughput dose response assay for activators of the calcium sensitivity of cardiac Regulated Thin Filaments (RTF). [Related pubchem assays (depositor defined):AID493008, AID493018, AID504382, AID504383]; format: protein-complex assay
[10] = biological target: Voltage-dependent T-type calcium channel subunit alpha-1H (Homo sapiens, UniProt O95180); experiment: human CACNA1H calcium influx blockade – cell-based, synthetic library set 1, calcium flux (AID 493022); format: functional
[11] = biological target: Hexokinase (Trypanosoma brucei, UniProt Q38C41); experiment: Confirmation assay for inhibitors of Trypanosoma brucei hexokinase 1-Analogue-first series. [Related pubchem assays (depositor defined):AID1430, AID1632, AID2516, AID2560, AID2579, AID2600, AID449725, AID492951]; format: functional
[12] = biological target: T1, Short transient receptor potential channel 4; experiment: calcium entry via TRPC4 opening agents – cell-based, HEK293 TRPC4/mu-opioid, Fluo-4 calcium, dose response (AID 434937); format: functional

Sequence of Voltage-dependent T-type calcium channel subunit alpha-1H (O95180 whole entry): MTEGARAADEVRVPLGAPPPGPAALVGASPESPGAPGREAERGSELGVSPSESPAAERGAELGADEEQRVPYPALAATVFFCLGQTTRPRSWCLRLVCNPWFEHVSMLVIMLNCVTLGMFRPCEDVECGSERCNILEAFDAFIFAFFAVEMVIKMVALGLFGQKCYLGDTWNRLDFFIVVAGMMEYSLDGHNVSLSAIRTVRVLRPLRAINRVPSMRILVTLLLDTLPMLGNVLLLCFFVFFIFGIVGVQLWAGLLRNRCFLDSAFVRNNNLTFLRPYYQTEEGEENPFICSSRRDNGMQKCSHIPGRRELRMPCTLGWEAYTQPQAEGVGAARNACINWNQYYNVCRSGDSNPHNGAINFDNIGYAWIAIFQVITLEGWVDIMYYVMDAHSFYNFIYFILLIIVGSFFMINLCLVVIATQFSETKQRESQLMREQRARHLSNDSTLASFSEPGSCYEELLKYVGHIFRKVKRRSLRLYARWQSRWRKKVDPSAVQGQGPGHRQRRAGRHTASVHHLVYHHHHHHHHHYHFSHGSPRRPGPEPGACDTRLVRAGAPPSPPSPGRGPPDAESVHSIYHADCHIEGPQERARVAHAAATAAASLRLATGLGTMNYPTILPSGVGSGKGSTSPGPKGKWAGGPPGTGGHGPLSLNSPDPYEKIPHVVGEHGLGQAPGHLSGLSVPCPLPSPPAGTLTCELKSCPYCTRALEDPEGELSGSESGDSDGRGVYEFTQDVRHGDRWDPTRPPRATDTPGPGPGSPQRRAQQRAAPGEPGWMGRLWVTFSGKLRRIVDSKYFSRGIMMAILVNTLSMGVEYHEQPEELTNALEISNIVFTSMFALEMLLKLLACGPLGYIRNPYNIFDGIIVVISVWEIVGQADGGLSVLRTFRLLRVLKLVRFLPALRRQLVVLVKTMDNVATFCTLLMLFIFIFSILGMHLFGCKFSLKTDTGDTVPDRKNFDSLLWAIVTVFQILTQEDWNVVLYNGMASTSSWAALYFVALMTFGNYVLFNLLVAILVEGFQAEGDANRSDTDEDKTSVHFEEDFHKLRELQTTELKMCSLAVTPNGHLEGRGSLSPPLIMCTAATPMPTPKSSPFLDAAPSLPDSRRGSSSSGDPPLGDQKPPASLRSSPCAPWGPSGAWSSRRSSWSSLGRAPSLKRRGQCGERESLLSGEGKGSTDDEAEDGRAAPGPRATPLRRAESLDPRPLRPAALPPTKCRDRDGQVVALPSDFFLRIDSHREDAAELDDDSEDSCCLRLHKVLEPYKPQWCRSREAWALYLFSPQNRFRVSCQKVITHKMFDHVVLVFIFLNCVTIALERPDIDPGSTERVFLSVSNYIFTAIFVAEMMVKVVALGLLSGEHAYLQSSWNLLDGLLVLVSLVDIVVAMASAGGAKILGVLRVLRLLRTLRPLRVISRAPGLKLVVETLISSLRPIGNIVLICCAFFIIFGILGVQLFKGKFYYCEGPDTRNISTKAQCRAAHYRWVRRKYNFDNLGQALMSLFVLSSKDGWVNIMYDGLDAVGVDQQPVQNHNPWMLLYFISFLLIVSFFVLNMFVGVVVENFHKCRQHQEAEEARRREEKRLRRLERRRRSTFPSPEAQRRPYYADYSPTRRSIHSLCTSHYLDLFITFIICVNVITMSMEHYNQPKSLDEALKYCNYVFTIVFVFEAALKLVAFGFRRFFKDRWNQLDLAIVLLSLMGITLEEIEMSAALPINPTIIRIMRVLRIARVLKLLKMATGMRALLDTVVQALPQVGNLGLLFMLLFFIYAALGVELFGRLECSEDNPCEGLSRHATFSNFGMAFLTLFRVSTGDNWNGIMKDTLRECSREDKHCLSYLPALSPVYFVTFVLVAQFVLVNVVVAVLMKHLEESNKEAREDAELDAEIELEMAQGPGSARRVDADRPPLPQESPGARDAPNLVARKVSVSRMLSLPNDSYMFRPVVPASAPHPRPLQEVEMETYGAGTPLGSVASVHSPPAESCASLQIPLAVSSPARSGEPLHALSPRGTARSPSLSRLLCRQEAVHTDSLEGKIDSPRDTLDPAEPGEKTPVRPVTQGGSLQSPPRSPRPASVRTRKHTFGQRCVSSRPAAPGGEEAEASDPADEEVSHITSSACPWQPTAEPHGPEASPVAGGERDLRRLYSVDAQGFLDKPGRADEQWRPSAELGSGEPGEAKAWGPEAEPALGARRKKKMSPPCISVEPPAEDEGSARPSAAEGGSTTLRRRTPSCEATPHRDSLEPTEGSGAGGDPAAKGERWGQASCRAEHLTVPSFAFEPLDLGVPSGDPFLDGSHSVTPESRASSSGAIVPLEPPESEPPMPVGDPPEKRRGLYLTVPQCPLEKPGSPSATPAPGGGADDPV
Sequence of Hexokinase (Q38C41 whole entry): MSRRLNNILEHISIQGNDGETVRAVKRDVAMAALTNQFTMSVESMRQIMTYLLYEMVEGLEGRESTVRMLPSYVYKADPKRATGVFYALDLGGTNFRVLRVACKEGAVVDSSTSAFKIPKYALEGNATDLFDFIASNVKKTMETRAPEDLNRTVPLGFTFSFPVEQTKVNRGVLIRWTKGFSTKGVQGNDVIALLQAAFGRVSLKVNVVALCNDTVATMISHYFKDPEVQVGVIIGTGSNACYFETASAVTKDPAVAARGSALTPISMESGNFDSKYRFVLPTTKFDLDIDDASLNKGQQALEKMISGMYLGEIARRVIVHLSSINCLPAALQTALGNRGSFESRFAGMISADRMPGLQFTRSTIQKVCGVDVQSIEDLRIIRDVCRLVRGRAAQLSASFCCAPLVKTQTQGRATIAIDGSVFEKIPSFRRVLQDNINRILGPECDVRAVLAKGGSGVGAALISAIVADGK
Sequence of ORF 73 (O40947 whole entry): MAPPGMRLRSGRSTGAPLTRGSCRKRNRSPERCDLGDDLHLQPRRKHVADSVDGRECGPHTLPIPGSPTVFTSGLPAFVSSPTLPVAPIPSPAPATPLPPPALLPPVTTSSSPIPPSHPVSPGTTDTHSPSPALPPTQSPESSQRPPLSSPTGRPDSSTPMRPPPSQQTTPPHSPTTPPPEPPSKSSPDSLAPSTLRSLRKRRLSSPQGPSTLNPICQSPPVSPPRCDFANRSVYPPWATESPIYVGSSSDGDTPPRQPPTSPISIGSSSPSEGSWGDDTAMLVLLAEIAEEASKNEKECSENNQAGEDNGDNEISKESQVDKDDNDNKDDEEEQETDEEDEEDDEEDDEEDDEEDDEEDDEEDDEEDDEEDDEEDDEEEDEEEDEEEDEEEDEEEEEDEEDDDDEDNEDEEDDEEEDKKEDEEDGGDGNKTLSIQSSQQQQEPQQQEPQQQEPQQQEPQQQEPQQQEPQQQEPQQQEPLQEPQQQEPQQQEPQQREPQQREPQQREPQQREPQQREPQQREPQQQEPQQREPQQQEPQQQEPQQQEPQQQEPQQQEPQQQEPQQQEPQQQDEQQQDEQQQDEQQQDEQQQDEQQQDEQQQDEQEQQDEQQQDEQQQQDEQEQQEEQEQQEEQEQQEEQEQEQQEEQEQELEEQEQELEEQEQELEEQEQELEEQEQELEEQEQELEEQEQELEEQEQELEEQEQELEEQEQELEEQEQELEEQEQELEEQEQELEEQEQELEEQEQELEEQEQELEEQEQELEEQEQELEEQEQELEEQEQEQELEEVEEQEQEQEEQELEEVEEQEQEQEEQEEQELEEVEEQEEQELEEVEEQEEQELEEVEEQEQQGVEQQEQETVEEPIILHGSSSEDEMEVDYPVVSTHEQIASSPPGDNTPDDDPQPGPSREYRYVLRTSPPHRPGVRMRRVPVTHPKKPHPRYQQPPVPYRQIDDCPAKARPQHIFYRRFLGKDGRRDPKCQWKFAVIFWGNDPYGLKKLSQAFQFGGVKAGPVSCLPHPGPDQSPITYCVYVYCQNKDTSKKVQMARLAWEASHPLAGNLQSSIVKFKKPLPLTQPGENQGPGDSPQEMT

In the case of `COc1ccc(Cl)cc1C(=O)NCCN(C)C`, the EC50 [1] was 0.67 µM (active).

With `COc1ccc(NC(=O)Cc2c[nH]c3ccccc23)cc1S(=O)(=O)N1CCCCC1` the EC50 [2] was > 80 µM (inactive).

For `Clc1ccc(C2=CC(c3ccco3)n3ncnc3N2)cc1` (configuration not stated), the EC50 [3] was 24.7 µM (inconclusive), the EC50 [4] was 3.36 µM (active) and the AC50 [5] was 171 µM (active). For the same molecule, the EC50 [6] was 8.29 µM (active).

In the case of `CCN(CC)C(=O)c1ccc(C(=O)c2c(C)cc(C)cc2C)cc1`, the EC50 [2] was > 80 µM (inactive).

With `COc1ccc(/C=C/C(=O)NC(=S)Nc2ccc(C(=O)O)cc2)cc1` the IC50 [7] was 53 µM (active), the IC50 [8] was > 50 µM (not active) and the EC50 [9] was > 71.5 µM (inactive).

In the case of `CC(Oc1ccccc1)C(=O)Nc1nnc(-c2ccc3c(c2)OCCO3)o1` (configuration not stated), the EC50 [10] was 10 µM (active).

With `O=C(COc1ccc(F)cc1Cl)Nc1nnc(-c2ccc(F)c(F)c2)o1` the EC50 [10] was 1.1 µM (active).

For `COc1ccccc1NS(=O)(=O)c1cc([N+](=O)[O-])ccc1N/N=C/c1c(C)[nH]c2ccccc12`, the EC50 [9] was 2.57 µM (active).

With `O=C(c1ccccc1)n1sc2ccccc2c1=O` the IC50 [11] was > 25 µM (inactive).

In the case of `CCOC(=O)c1c(NC(=O)COC(=O)Cc2c[nH]c3ccccc23)sc(C(=O)N(C)C)c1C`, the EC50 [1] was 0.42 µM (active) and the EC50 [12] was 5.96 µM (active).

`Cc1ccccc1NC(=O)Cn1sc2ccccc2c1=O` was tested, and the IC50 [11] was 8.52 µM (active).
